Reference: PubChem BioAssay AID2060903 (Molecular Pharmacology Branch, DTP, NCI, 2025)
Blank lines part the entries; values can stand above or below the compound they belong to.

Tested on: 377384-186-R-J1-PDC complex spheroid viability
Assay: Anticancer human tumor 377384-186-R-J1-PDC patient-derived pancreatic carcinoma cell line growth inhibition [RAS]
Conditions: for viability, T/C: stronger effect = lower value
Description: RAS pathway inhibitors in Combinations in Complex Spheroids
A high-throughput screen of multi-cell type tumor spheroids was designed to identify active combinations of RAS pathway inhibitors and targeted small molecules. Complex spheroids include a stromal component modeled by human endothelial cells (HUVEC) and fibroblasts modeled by human mesenchymal stem cells (MSCs). The concentration ranges selected for each drug and investigational agent were based upon clinically achievable concentrations if the clinical Cmax of the agent was known.
Compounds. The drugs and investigational agents: abemaciclib (NSC768073), cobimetinib (NSC768068), divarasib (GDC6063, NSC841802), docetaxel (NSC628503), GDC-1971 (RLY-1971, NSC841576), gemcitabine (NSC613327), inavolisib (NSC800729), ipatasertib (NSC767898), KB-0742 (NSC834161), MRTX-1133 (NSC836407), osimertinib (NSC779217), RMC-4630 (NSC839698), RMC-6236 (NSC851965), RMC-6291 (NSC852671), Ro-3306 (NSC812927), sapanisertib (NSC764658), SN-38 (NSC673596), staurosporine (NSC755774), SY5609 (NSC837396), and tovorafenib (DAY101, NSC766906), were obtained from the National Cancer Institute (NCI) Developmental Therapeutics Program Chemical Repository. The FDA-approved anticancer drug set is available from the NCI Developmental Therapeutics Program. […] The stock solutions were prepared in dimethyl sulfoxide (DMSO, Sigma-Aldrich, St. Louis, MO, cat. D2650) at 800-fold the tested concentration and stored at -70 degrees C prior to their use. All drugs and investigational agents were tested over a range starting from a high concentration at or near the clinical Cmax and decreasing in half-log increments. If the clinical Cmax for an agent had not been determined, the highest concentration tested was 10 microM.
Cell Culture. All cells were maintained in an incubator at 37 degrees C and 5% CO2 with 95% humidity. The PDC lines were cultured according to standard operating procedures established by the NCI PDMR. All PDCs were thawed and cultured in Matrigel-coated flasks prepared with a working solution of 1X Ham's F-12 nutrient mix, without supplementation (Invitrogen, Waltham, MA, cat. 11765054), 100 U/mL penicillin-streptomycin (Invitrogen, cat. 15140122), and 2.5% Matrigel (Corning Inc., Corning, NY, cat. 354248) for the first three passages. The 362531-283-R-J2-PDC and 782815-120-R-J1-PDC lines were cultured in 6C/Colon 1B media, which includes advanced DMEM/F-12 (Thermo Fisher Scientific, cat. 12634028), 10 mM HEPES (Thermo Fisher Scientific, cat. 15630080), 1X GlutaMAX supplement (Thermo Fisher Scientific, cat. 35050061), 0.1 mg/mL primocin (InvivoGen, San Diego, CA, cat. ant-pm-2), 10% defined fetal bovine serum, heat inactivated (HyClone Laboratories Inc., Logan, UT, cat. SH30070.03HI), 50% L-WRN conditioned media (ATCC, cat. CRL-3276), 1.25 mM N-Acetyl-L-cysteine (Sigma-Aldrich, cat. A9165), 10 mM nicotinamide (Sigma-Aldrich, cat. N0636), 1X B-27 supplement (Thermo Fisher Scientific, cat. 17504044), 1X N-2 supplement (Thermo Fisher Scientific, cat. 17502048), 50 ng/mL human EGF (Thermo Fisher Scientific, cat. PHG0311), and 10 microM Y-27632 dihydrochloride (Tocris Bioscience, cat. 1254). The K12877-001-R-J1-PDC line was cultured in 6I media, which includes all 6C/Colon 1B media plus 10 ng/mL human FGF-10 (PeproTech, cat. 100-26), 1 ng/mL human FGF-2 (PeproTech, cat. 100-18B), 1 µM prostaglandin E2 (Tocris Bioscience, cat. 2296), […] hydrocortisone (Sigma-Aldrich, cat. H4001), and […] bovine insulin (Sigma-Aldrich, cat. I6634). The K86415-001-R-J1-PDC line was cultured in 6D media, which includes all 6C/Colon 1B media components minus the L-WRN conditioned media. The 485176-168-R4-J1-PDC was cultured in PANC media, which includes all 6C/Colon 1B media plus 100 ng/mL human FGF-10 (PeproTech, cat. 100-26), 500 nM SB-431542 (Selleckchem, cat. S1067), and 10 nM gastrin (Tocris Bioscience, cat. 3006). […]

[1] = curve of first compound, second compound 0.000949 µM
[2] = curve of first compound, second compound 0.003 µM
[3] = curve of first compound, second compound 0.00949 µM
[4] = curve of first compound, second compound 0.03 µM
[5] = curve of first compound, second compound 0.0949 µM
[6] = curve of first compound, second compound 0.3 µM
[7] = second compound 0.000949 µM, first compound 0.0316 µM
[8] = second compound 0.000949 µM, first compound 0.1 µM
[9] = second compound 0.000949 µM, first compound 0.316 µM
[10] = second compound 0.000949 µM, first compound 1 µM
[11] = second compound 0.000949 µM, first compound 3.16 µM
[12] = second compound 0.000949 µM, first compound 10 µM
[13] = second compound 0.003 µM, first compound 0.0316 µM
[14] = second compound 0.003 µM, first compound 0.1 µM
[15] = second compound 0.003 µM, first compound 0.316 µM
[16] = second compound 0.003 µM, first compound 1 µM
[17] = second compound 0.003 µM, first compound 3.16 µM
[18] = second compound 0.003 µM, first compound 10 µM
[19] = second compound 0.00949 µM, first compound 0.0316 µM
[20] = second compound 0.00949 µM, first compound 0.1 µM
[21] = second compound 0.00949 µM, first compound 0.316 µM
[22] = second compound 0.00949 µM, first compound 1 µM
[23] = second compound 0.00949 µM, first compound 3.16 µM
[24] = second compound 0.00949 µM, first compound 10 µM
[25] = second compound 0.03 µM, first compound 0.0316 µM
[26] = second compound 0.03 µM, first compound 0.1 µM
[27] = second compound 0.03 µM, first compound 0.316 µM
[28] = second compound 0.03 µM, first compound 1 µM
[29] = second compound 0.03 µM, first compound 3.16 µM
[30] = second compound 0.03 µM, first compound 10 µM
[31] = second compound 0.0949 µM, first compound 0.0316 µM
[32] = second compound 0.0949 µM, first compound 0.1 µM
[33] = second compound 0.0949 µM, first compound 0.316 µM
[34] = second compound 0.0949 µM, first compound 1 µM
[35] = second compound 0.0949 µM, first compound 3.16 µM
[36] = second compound 0.0949 µM, first compound 10 µM
[37] = second compound 0.3 µM, first compound 0.0316 µM
[38] = second compound 0.3 µM, first compound 0.1 µM
[39] = second compound 0.3 µM, first compound 0.316 µM
[40] = second compound 0.3 µM, first compound 1 µM
[41] = second compound 0.3 µM, first compound 3.16 µM
[42] = second compound 0.3 µM, first compound 10 µM
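Further: spheroids exposed to compounds for seven days before readout.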

IC50 [1]: < 31.6 nM | IC50 [2]: < 31.6 nM | IC50 [3]: < 31.6 nM | IC50 [4]: < 31.6 nM | IC50 [5]: < 31.6 nM | IC50 [6]: < 31.6 nM
SMILES: CCC(CC)c1cc(NC2CCC(N)C2)n2nccc2n1 (stereo not given) + CCn1c(-c2cc(N3CCN(C)CC3)cnc2C(C)OC)c2c3cc(ccc31)-c1csc(n1)CC(NC(=O)C1CC1C)C(=O)N1CCCC(N1)C(=O)OCC(C)(C)C2
viability, T/C [7]: 48.2% | viability, T/C [8]: 55% | viability, T/C [9]: 46.9% | viability, T/C [10]: 32.9% | viability, T/C [11]: 0.81% | viability, T/C [12]: 2.3% | viability, T/C [13]: 21.7% | viability, T/C [14]: 16.6% | viability, T/C [15]: 20.9% | viability, T/C [16]: 10.7% | viability, T/C [17]: 0.83% | viability, T/C [18]: 2.38% | viability, T/C [19]: 4.86% | viability, T/C [20]: 4.6% | viability, T/C [21]: 5.64% | viability, T/C [22]: 3.71% | viability, T/C [23]: 0.61% | viability, T/C [24]: 3.05% | viability, T/C [25]: 2.61% | viability, T/C [26]: 2.47% | viability, T/C [27]: 2.47% | viability, T/C [28]: 2.01% | viability, T/C [29]: 0.73% | viability, T/C [30]: 1.89% | viability, T/C [31]: 1.88% | viability, T/C [32]: 1.8% | viability, T/C [33]: 1.76% | viability, T/C [34]: 2.22% | viability, T/C [35]: 0.82% | viability, T/C [36]: 2.4% | viability, T/C [37]: 2.16% | viability, T/C [38]: 1.88% | viability, T/C [39]: 1.75% | viability, T/C [40]: 1.54% | viability, T/C [41]: 0.54% | viability, T/C [42]: 1.98%

IC50 (compound alone, run of 08/20/2024): > 300 nM
SMILES: CCn1c(-c2cccnc2C(C)OC)c2c3cc(ccc31)N1CCOC(CC(NC(=O)C(C(C)C)N(C)C(=O)C3(F)CCN(C(=O)C#CC(C)(C)N(C)C)CC3)C(=O)N3CCCC(N3)C(=O)OCC(C)(C)C2)C1 (stereo not given)
viability, T/C (compound 0.000949 µM): 105% [middle of 8 runs] | viability, T/C (compound 0.003 µM): 109% [middle of 8 runs] | viability, T/C (compound 0.03 µM): 99.3% [middle of 8 runs] | viability, T/C (compound 0.0949 µM): 99.5% [middle of 8 runs] | viability, T/C (compound 0.3 µM): 88% [middle of 8 runs]

IC50 [1]: > 10000 nM | IC50 [2]: > 10000 nM | IC50 [3]: > 10000 nM | IC50 [4]: > 10000 nM | IC50 [5]: > 10000 nM | IC50 [6]: > 10000 nM
SMILES: C[C@@H](NC(=O)c1ncnc(N)c1Cl)c1ncc(C(=O)Nc2cc(C(F)(F)F)c(Cl)cn2)s1 + CCn1c(-c2cccnc2C(C)OC)c2c3cc(ccc31)N1CCOC(CC(NC(=O)C(C(C)C)N(C)C(=O)C3(F)CCN(C(=O)C#CC(C)(C)N(C)C)CC3)C(=O)N3CCCC(N3)C(=O)OCC(C)(C)C2)C1
viability, T/C [7]: 106% | viability, T/C [8]: 109% | viability, T/C [9]: 113% | viability, T/C [10]: 133% | viability, T/C [11]: 128% | viability, T/C [12]: 111% | viability, T/C [13]: 102% | viability, T/C [14]: 104% | viability, T/C [15]: 120% | viability, T/C [16]: 134% | viability, T/C [17]: 127% | viability, T/C [18]: 108% | viability, T/C [19]: 98% | viability, T/C [20]: 114% | viability, T/C [21]: 106% | viability, T/C [22]: 129% | viability, T/C [23]: 150% | viability, T/C [24]: 108% | viability, T/C [25]: 110% | viability, T/C [26]: 106% | viability, T/C [27]: 129% | viability, T/C [28]: 115% | viability, T/C [29]: 142% | viability, T/C [30]: 103% | viability, T/C [31]: 96.8% | viability, T/C [32]: 98.5% | viability, T/C [33]: 113% | viability, T/C [34]: 118% | viability, T/C [35]: 130% | viability, T/C [36]: 99.6% | viability, T/C [37]: 88.1% | viability, T/C [38]: 89.3% | viability, T/C [39]: 85.5% | viability, T/C [40]: 95.9% | viability, T/C [41]: 108% | viability, T/C [42]: 82.4%
